Results: patent US6127337A, “Bivalent thrombin inhibitors” (National Research Council of Canada, priority 1993, dated 2000)
Read-outs that look alike come from different tables or passages of the source. One block for each molecule: values may come before it.

Target: T1, human thrombin (Homo sapiens, UniProt P00734)
T1 construct: Human α-thrombin (3,000 NIH units/mg); purchased Sigma
Assay: Inhibition of amidolytic activity of human thrombin (fluorogenic, Tos-Gly-Pro-Arg-AMC), Ki
Assay type: biochemical
Procedure: Materials. The chromogenic and fluorogenic substrates Tosyl-Gly-Pro-Arg-pNAand Tos-Gly-Pro-Arg-AMC were purchased from Boehringer Manheim and Sigma, respectively. […] Initial velocities were recorded at several inhibitor concentrations and kinetic parameters were determined by fitting the data to a general equation describing enzyme inhibition (Segel, 1975). The data were analyzed using the non-linear regression program RNLIN in the IMSL library (IMSL, 1987) on a microVAX™ 3500 computer. […] Fluorogenic assays were conducted using the same conditions and instrument as above operating in the fluorescence mode in the ratio (λex =383 nm, λem =455 nm) Fluorescence intensities were calibrated with 7-amino-4-methyl coumarin solution of known concentration
Determination of Thrombin Inhibitory Dissociation Constants KI
The steady-state velocity was then measured for a few minutes. The compounds of this invention were also pre-incubated with thrombin for 20 min at room temperature before adding the substrate. […] The kinetic data (the steady-state velocity at various concentrations of the substrate and the inhibitors) of the competitive inhibition was analyzed using the methods described by Segel (1975). A non-linear regression program, RNLIN in the IMSL library (IMSL, 1987), LMDER in MINPACK library (More et al., 1980) or Microsoft™ Excell™, was used to estimate the kinetic parameters (Km Vmax and Ki). The biological data are reported on tables I-V.

[1] = Table II, various active site inhibitor segments, human thrombin 3.0×10^-11 M, read-out: Ki
[2] = Table III, various linker segments, human thrombin 3.0×10^-11 M, read-out: Ki

Molecule: CC[C@H](C)[C@H](NC(=O)[C@H](CCC(=O)O)NC(=O)[C@H](CCC(=O)O)NC(=O)[C@H](Cc1ccccc1)NC(=O)[C@H](CC(=O)O)NC(=O)CCCCNC(=O)CNC(=O)CNC(=O)CCNC(=O)[C@H]1CCCCN1C(=O)[C@H](CCCNC(=N)N)NS(=O)(=O)c1cccc2c(N(C)C)cccc12)C(=O)N1CCC[C@H]1C(=O)N[C@@H](CCC(=O)O)C(=O)N[C@@H](CCC(=O)O)C(=O)N[C@@H](Cc1ccc(O)cc1)C(=O)N[C@@H](CC(C)C)C(=O)N[C@@H](CCC(N)=O)C(=O)O [Peptide P498]
Ki (FIG. 1 Dixon plot, human α-thrombin 0.033 NIH unit/mL, pH 7.8, 25° C., read-out: Ki): 0.131 ± 0.022 nM
Ki (read-out: Ki value): < 1 nM

Molecule: dansyl-Arg-(D)1-amino cyclohexane carboxylic acid-(12-aminododecanoic acid)-4-aminobutyric acid)-Asp-Phe-Glu-Glu-Ile-Pro-Glu-Glu-Tyr-Leu-Gln-OH [Peptide P473]
Ki [1]: 36.3 ± 10.3 nM

Molecule: dansyl-Arg-(D-Pipecolic acid)-(7-aminoheptanoic acid)-glycyl)-Asp-Phe-Glu-Glu-Ile-Pro-Glu-Glu-Tyr-Leu-Gln-OH (RXXGDFEEIPEEYLQ; dansyl, D-pipecolic acid, aminoheptanoic acid-glycyl linker) [Peptide P524]
Ki [2]: 1480 ± 170 nM

Molecule: dansyl-Arg-(D-Pipecolic acid)-(8-aminocaproicacid)-4-aminobutyric acid)-Asp-Phe-Glu-Glu-Ile-Pro-Glu-Glu-Tyr-Leu-Gln-OH [Peptide P528]
Ki [2]: 0.521 ± 0.086 nM
Ki (read-out: Ki value): < 1 nM

Molecule: dansyl-Arg-(D-pipecolic acid)-(12-aminododecanoic acid)-4-aminobutyric acid)-Asp-Tyr-Glu-Pro-Ile-Pro-Glu-Glu-Ala-(L-β-cyclohexylalanine)-(D- Glu)-OH [Peptide P535]
Ki (Table IV, results from assay no. 1, read-out: Ki): 0.00123 ± 0.00026 nM
Ki (Table IV, results from assay no. 2, read-out: Ki): 0.002 ± 0.0004 nM

Molecule: dansyl-Arg-(L-Pip)-(4-aminobutyric acid-glycyl)-Asp-Phe-Glu-Glu-Ile-Pro-Glu-Glu-Tyr-Leu-Gln-OH [Peptide P409]
Ki (Table III, various linker segments, human thrombin 3.0×10^-11 M): no inhibition

Molecule: dansyl-Arg-(L-pipecolic acid)-(12-aminododecanoic acid)-4-aminobutyric acid)-Asp-Phe-Glu-Glu-Ile-Pro-Glu-Glu-Tyr-Leu-Gln-OH [Peptide P447]
Ki [1]: 12.4 ± 1.8 nM

Continued, values first:

Ki [1]: 54.9 ± 6.6 nM
Molecule: (D-Phe)-Arg-(D-Pipecolic acid)(12-aminododecanoic acid)-4-aminobutyric acid)-Asp-Phe-Glu-Glu-Ile-Pro-Glu-Glu-Tyr-Leu-Gln-OH [Peptide P483]

Ki [1]: 9.51 ± 0.16 nM
Molecule: (D-β-cyclohexylalanine)-Arg-(D-Pipecolic acid)-(12-aminododecanoic acid)-4-aminobutyric acid)-Asp-Phe-Glu-Glu-Ile-Pro-Glu-Glu-Tyr-Leu-Gln-OH [Peptide P481]

Ki [1]: 0.137 ± 0.026 nM
Ki (read-out: Ki value): < 1 nM
Molecule: benzyl sulfonyl-Arg-(D-Pipecolic acid)-(12-aminododecanoic acid)-4-aminobutyric acid)-Asp-Phe-Glu-Glu-Ile-Pro-Glu-Glu-Tyr-Leu-Gln-OH [Peptide P556]

Ki [1]: 1.02 ± 0.38 nM
Molecule: dansyl-(D-Arg)-(D-Pipecolic acid)-(12-aminododecanoic acid)-4-aminobutyric acid)-Asp-Phe-Glu-Glu-Ile-Pro-Glu-Glu-Tyr-Leu-Gln-OH [Peptide P492]

Ki [1]: 0.285 ± 0.04 nM
Molecule: dansyl-Arg-1,2,3,4-tetrahydroisoquinoline-3-carboxylic acid-(12-aminododecanoic acid)-4-aminobutyric acid)-Asp-Phe-Glu-Glu-Ile-Pro-Glu-Glu-Tyr-Leu-Gln-OH (RXXXDFEEIPEEYLQ; dansyl-Arg-Tic-aminododecanoic-aminobutyric N-terminal extension) [Peptide P471]

Ki [2]: 6800 ± 1640 nM
Molecule: dansyl-Arg-(D-Pipecolic acid)-(4-aminobutyric acid)-glycyl)-Asp-Phe-Glu-Glu-Ile-Pro-Glu-Glu-Tyr-Leu-Gln-OH [Peptide P514]

Ki [1]: 17.1 ± 3.1 nM
Molecule: dansyl-Arg-(D-β-cyclohexylalanine)-(12-aminododecanoic acid)-4-aminobutyric acid)-Asp-Phe-Glu-Glu-Ile-Pro-Glu-Glu-Tyr-Leu-Gln-OH [Peptide P472]
